SMILES strings stand for the structures. Values after ≈ are worked out from the molar mass of the structure shown.

Common to all, as to assay type: functional
The test system of assay [1] is Staphylococcus epidermidis. Nature of the assay: Inhibitory activity against Methicillin-resistant Staphylococcus epidermidis UC12084.
The next assay deals with Enterococcus faecalis. Nature of the assay: Inhibitory activity against Enterococcus faecalis UC9217.
The next assay relates to Haemophilus influenzae. Nature of the assay: Inhibitory activity against Haemophilus influenzae UC30063.
Assay [2] has as its system Staphylococcus aureus. Nature of the assay: Inhibitory activity against Methicillin-susceptible Staphylococcus aureus UC9213.
In the next assay the test system is Moraxella catarrhalis. The experiment in a line: Inhibitory activity against Moraxella catarrhalis UC30610.
The test system of another assay is Streptococcus pneumoniae. The experiment in a line: Inhibitory activity against Streptococcus pneumoniae UC9912.
Assay [3] relates to Staphylococcus aureus. Nature of the assay: Inhibitory activity against Methicillin-resistant Staphylococcus aureus UC6685.

Regarding `CC(=O)NC[C@H]1CN(c2ccc(-n3ccc(NS(C)(=O)=O)n3)c(F)c2)C(=O)O1`, the MIC was 4 µg/mL (≈ 9.72 µM) in assay [1]; above 16 µg/mL in the assay on Enterococcus faecalis; above 16 µg/mL against Haemophilus influenzae; above 16 µg/mL with Staphylococcus aureus [2]; above 16 µg/mL against Moraxella catarrhalis; 4 µg/mL (≈ 9.72 µM) with Streptococcus pneumoniae.

Take `CC(=O)NC[C@H]1CN(c2ccc(-n3ncnn3)c(F)c2)C(=O)O1`: the MIC was 1 µg/mL (≈ 3.12 µM) in assay [1]; 1 µg/mL (≈ 3.12 µM) in the assay on Enterococcus faecalis; 8 µg/mL (≈ 25 µM) with Haemophilus influenzae; 2 µg/mL (≈ 6.24 µM) against Staphylococcus aureus [2]; 8 µg/mL (≈ 25 µM) against Moraxella catarrhalis; 2 µg/mL (≈ 6.24 µM) against Staphylococcus aureus [3]. In the assay with Streptococcus pneumoniae, this compound returned an MIC of 0.5 µg/mL (≈ 1.56 µM).

`CC(=O)NC[C@H]1CN(c2ccc(-n3cc(C#C[Si](C)(C)C)cn3)c(F)c2)C(=O)O1`: the MIC was 2 µg/mL (≈ 4.82 µM) in assay [1]; 8 µg/mL (≈ 19.3 µM) against Enterococcus faecalis; above 16 µg/mL against Haemophilus influenzae; 4 µg/mL (≈ 9.65 µM) against Staphylococcus aureus [2]; above 16 µg/mL against Moraxella catarrhalis; 4 µg/mL (≈ 9.65 µM) in the assay with Staphylococcus aureus [3]. In the assay with Streptococcus pneumoniae, this compound came in with an MIC of 2 µg/mL (≈ 4.82 µM).

Turning to `CC(=O)NC[C@H]1CN(c2ccc(-n3ccc(C)n3)c(F)c2)C(=O)O1`, the MIC was 1 µg/mL (≈ 3.01 µM) in assay [1]; 4 µg/mL (≈ 12 µM) in the assay with Enterococcus faecalis; above 16 µg/mL in the assay with Haemophilus influenzae; 4 µg/mL (≈ 12 µM) against Staphylococcus aureus [2]; 16 µg/mL (≈ 48.1 µM) against Moraxella catarrhalis; 4 µg/mL (≈ 12 µM) in the assay on Staphylococcus aureus [3]. This compound showed an MIC against Streptococcus pneumoniae of 1 µg/mL (≈ 3.01 µM).

As for `CC(=O)NC[C@H]1CN(c2ccc(-n3ccc(NC(=O)CO)n3)c(F)c2)C(=O)O1`, the MIC in assay [1] was 4 µg/mL (≈ 10.2 µM); with Enterococcus faecalis, 8 µg/mL (≈ 20.4 µM); in the assay on Haemophilus influenzae, above 16 µg/mL; with Staphylococcus aureus [2], 16 µg/mL (≈ 40.9 µM); against Moraxella catarrhalis, above 16 µg/mL; in the assay on Staphylococcus aureus [3], 16 µg/mL (≈ 40.9 µM). Further, the MIC against Streptococcus pneumoniae is 1 µg/mL (≈ 2.56 µM).

For `CC(=O)NC[C@H]1CN(c2ccc(-n3ccc(C(N)=O)c3)c(F)c2)C(=O)O1`, the MIC in assay [1] was 1 µg/mL (≈ 2.78 µM); in the assay with Enterococcus faecalis, 4 µg/mL (≈ 11.1 µM); against Haemophilus influenzae, above 16 µg/mL; in the assay with Staphylococcus aureus [2] it was 16 µg/mL (≈ 44.4 µM); in the assay with Moraxella catarrhalis, above 16 µg/mL; with Staphylococcus aureus [3], 8 µg/mL (≈ 22.2 µM). This compound had an MIC against Streptococcus pneumoniae of 0.25 µg/mL (≈ 0.694 µM).

`CC(=O)NC[C@H]1CN(c2ccc(-n3cc(/C=N/O)nn3)c(F)c2)C(=O)O1`: the MIC in assay [1] is 1 µg/mL (≈ 2.76 µM); in the assay with Enterococcus faecalis, 8 µg/mL (≈ 22.1 µM); against Haemophilus influenzae, above 16 µg/mL; with Staphylococcus aureus [2] it was 8 µg/mL (≈ 22.1 µM); in the assay with Moraxella catarrhalis, 8 µg/mL (≈ 22.1 µM); in the assay on Staphylococcus aureus [3], 2 µg/mL (≈ 5.52 µM). This compound also yielded an MIC in the assay on Streptococcus pneumoniae of 0.5 µg/mL (≈ 1.38 µM).

Take `CC(=O)NC[C@H]1CN(c2ccc(-n3nnc(C#N)n3)c(F)c2)C(=O)O1`: the MIC in assay [1] amounted to 0.5 µg/mL (≈ 1.45 µM); against Enterococcus faecalis it was 2 µg/mL (≈ 5.79 µM); in the assay on Haemophilus influenzae, 16 µg/mL (≈ 46.3 µM); against Staphylococcus aureus [2], 2 µg/mL (≈ 5.79 µM); in the assay with Moraxella catarrhalis it was 4 µg/mL (≈ 11.6 µM); against Staphylococcus aureus [3] it was 1 µg/mL (≈ 2.9 µM). The MIC in the assay with Streptococcus pneumoniae worked out at 0.5 µg/mL (≈ 1.45 µM).

In the case of `CC(=O)NC[C@H]1CN(c2ccc(-n3cc(NC(C)=O)cn3)c(F)c2)C(=O)O1`, the MIC in assay [1] was 2 µg/mL (≈ 5.33 µM); in the assay on Enterococcus faecalis, 16 µg/mL (≈ 42.6 µM); in the assay with Haemophilus influenzae, above 16 µg/mL; with Staphylococcus aureus [2], above 16 µg/mL; in the assay on Moraxella catarrhalis, above 16 µg/mL; against Staphylococcus aureus [3] it was 16 µg/mL (≈ 42.6 µM). The same compound showed an MIC with Streptococcus pneumoniae of 1 µg/mL (≈ 2.66 µM).

For the compound `CNC(=O)c1cnn(-c2ccc(N3C[C@H](CNC(C)=O)OC3=O)cc2F)c1`, the MIC in assay [1] was 2 µg/mL (≈ 5.33 µM); against Enterococcus faecalis, 16 µg/mL (≈ 42.6 µM); in the assay with Haemophilus influenzae, above 16 µg/mL; with Staphylococcus aureus [2] it was above 16 µg/mL; in the assay with Moraxella catarrhalis it was 16 µg/mL (≈ 42.6 µM); against Streptococcus pneumoniae, 0.5 µg/mL (≈ 1.33 µM).

With `CC(=O)NC[C@H]1CN(c2ccc(-n3cc(CO)nn3)c(F)c2)C(=O)O1`, the MIC is 0.5 µg/mL (≈ 1.43 µM) in assay [1]; 2 µg/mL (≈ 5.73 µM) against Enterococcus faecalis; 4 µg/mL (≈ 11.5 µM) against Haemophilus influenzae; 4 µg/mL (≈ 11.5 µM) in the assay with Staphylococcus aureus [2]; 2 µg/mL (≈ 5.73 µM) against Moraxella catarrhalis; 4 µg/mL (≈ 11.5 µM) against Staphylococcus aureus [3]. For the same compound, the MIC in the assay on Streptococcus pneumoniae was determined as 0.25 µg/mL (≈ 0.716 µM).

On to `CC(=O)NC[C@H]1CN(c2ccc(-n3cnc(C(N)=O)n3)c(F)c2)C(=O)O1`, for which the MIC in assay [1] was 16 µg/mL (≈ 44.2 µM); against Enterococcus faecalis, above 16 µg/mL; with Haemophilus influenzae it was above 16 µg/mL; with Staphylococcus aureus [2] it was above 16 µg/mL; with Moraxella catarrhalis, 16 µg/mL (≈ 44.2 µM); in the assay with Streptococcus pneumoniae, 2 µg/mL (≈ 5.52 µM).

For the compound `CC(=O)NC[C@H]1CN(c2ccc(-n3cnc(C=O)n3)c(F)c2)C(=O)O1`, the MIC in assay [1] is 0.5 µg/mL (≈ 1.44 µM); in the assay with Enterococcus faecalis, 4 µg/mL (≈ 11.5 µM); against Haemophilus influenzae it was 8 µg/mL (≈ 23 µM); against Staphylococcus aureus [2], 4 µg/mL (≈ 11.5 µM); in the assay with Moraxella catarrhalis, 8 µg/mL (≈ 23 µM); in the assay on Staphylococcus aureus [3], 2 µg/mL (≈ 5.76 µM). Also, the MIC in the assay on Streptococcus pneumoniae is 0.5 µg/mL (≈ 1.44 µM).

On to `CC(=O)NC[C@H]1CN(c2ccc(-n3ccc(NC(C)=O)n3)c(F)c2)C(=O)O1`, for which the MIC in assay [1] is 2 µg/mL (≈ 5.33 µM); in the assay on Enterococcus faecalis, 4 µg/mL (≈ 10.7 µM); in the assay with Haemophilus influenzae, above 16 µg/mL; with Staphylococcus aureus [2], 8 µg/mL (≈ 21.3 µM); against Moraxella catarrhalis, above 16 µg/mL; in the assay with Staphylococcus aureus [3] it was 8 µg/mL (≈ 21.3 µM). Further, the MIC with Streptococcus pneumoniae was 0.5 µg/mL (≈ 1.33 µM).

`CNC(=O)c1cn(-c2ccc(N3C[C@H](CNC(C)=O)OC3=O)cc2F)nn1`: the MIC in assay [1] is 2 µg/mL (≈ 5.31 µM); in the assay with Enterococcus faecalis it was 8 µg/mL (≈ 21.3 µM); against Haemophilus influenzae, above 16 µg/mL; in the assay with Staphylococcus aureus [2], 8 µg/mL (≈ 21.3 µM); against Moraxella catarrhalis, above 16 µg/mL; in the assay with Staphylococcus aureus [3], 4 µg/mL (≈ 10.6 µM). This compound registered an MIC against Streptococcus pneumoniae of 1 µg/mL (≈ 2.66 µM).

For the compound `CC(=O)NC[C@H]1CN(c2ccc(-n3ccc(OC(C)=O)n3)c(F)c2)C(=O)O1`, the MIC in assay [1] amounted to 1 µg/mL (≈ 2.66 µM); in the assay with Enterococcus faecalis it was 8 µg/mL (≈ 21.3 µM); against Haemophilus influenzae it was 16 µg/mL (≈ 42.5 µM); against Staphylococcus aureus [2], 8 µg/mL (≈ 21.3 µM); against Moraxella catarrhalis, 8 µg/mL (≈ 21.3 µM); in the assay with Staphylococcus aureus [3] it was 8 µg/mL (≈ 21.3 µM). In the assay with Streptococcus pneumoniae, this compound gave an MIC of 1 µg/mL (≈ 2.66 µM).

Turning to `COc1ccn(-c2ccc(N3C[C@H](CNC(C)=O)OC3=O)cc2F)n1`, the MIC in assay [1] is 2 µg/mL (≈ 5.74 µM); with Enterococcus faecalis it was 16 µg/mL (≈ 45.9 µM); against Haemophilus influenzae, 16 µg/mL (≈ 45.9 µM); against Staphylococcus aureus [2], 8 µg/mL (≈ 23 µM); in the assay with Moraxella catarrhalis it was 16 µg/mL (≈ 45.9 µM); against Staphylococcus aureus [3], 8 µg/mL (≈ 23 µM). This compound also displayed an MIC with Streptococcus pneumoniae of 2 µg/mL (≈ 5.74 µM).

Regarding `CC(=O)NC[C@H]1CN(c2ccc(-n3cnc(NC(=O)Cc4ccccc4)n3)c(F)c2)C(=O)O1`, the MIC in assay [1] was above 16 µg/mL; against Enterococcus faecalis, above 16 µg/mL; against Haemophilus influenzae, above 16 µg/mL; against Staphylococcus aureus [2] it was above 16 µg/mL; against Moraxella catarrhalis it was above 16 µg/mL; in the assay with Streptococcus pneumoniae it was 2 µg/mL (≈ 4.42 µM).

Take `CC(=O)NC[C@H]1CN(c2ccc(-n3cnc(N)n3)c(F)c2)C(=O)O1`: the MIC in assay [1] is 2 µg/mL (≈ 5.98 µM); in the assay with Enterococcus faecalis, 16 µg/mL (≈ 47.9 µM); against Haemophilus influenzae, above 16 µg/mL; against Staphylococcus aureus [2], 8 µg/mL (≈ 23.9 µM); in the assay on Moraxella catarrhalis, 16 µg/mL (≈ 47.9 µM); in the assay on Staphylococcus aureus [3], 4 µg/mL (≈ 12 µM). The compound also registered an MIC with Streptococcus pneumoniae of 1 µg/mL (≈ 2.99 µM).

As to `COC(=O)c1ncn(-c2ccc(N3C[C@H](CNC(C)=O)OC3=O)cc2F)n1`, the MIC in assay [1] is 4 µg/mL (≈ 10.6 µM); against Enterococcus faecalis, above 16 µg/mL; with Haemophilus influenzae it was above 16 µg/mL; against Staphylococcus aureus [2] it was above 16 µg/mL; in the assay with Moraxella catarrhalis it was above 16 µg/mL; against Streptococcus pneumoniae, 4 µg/mL (≈ 10.6 µM).

For `CC(=O)NC[C@H]1CN(c2ccc(-n3cnc(C#N)c3)c(F)c2)C(=O)O1`, the MIC was 0.5 µg/mL (≈ 1.46 µM) in assay [1]; 2 µg/mL (≈ 5.83 µM) against Enterococcus faecalis; 8 µg/mL (≈ 23.3 µM) in the assay on Haemophilus influenzae; 4 µg/mL (≈ 11.7 µM) in the assay with Staphylococcus aureus [2]; 4 µg/mL (≈ 11.7 µM) with Moraxella catarrhalis; 4 µg/mL (≈ 11.7 µM) against Staphylococcus aureus [3]. The MIC with Streptococcus pneumoniae stood at 0.25 µg/mL (≈ 0.728 µM).

On to `CC(=O)NC[C@H]1CN(c2ccc(-n3ccc(C(F)(F)F)n3)c(F)c2)C(=O)O1`, for which the MIC was 2 µg/mL (≈ 5.18 µM) in assay [1]; 8 µg/mL (≈ 20.7 µM) in the assay on Enterococcus faecalis; above 16 µg/mL in the assay on Haemophilus influenzae; 4 µg/mL (≈ 10.4 µM) against Staphylococcus aureus [2]; above 16 µg/mL against Moraxella catarrhalis; 4 µg/mL (≈ 10.4 µM) with Staphylococcus aureus [3]. Moreover, the MIC in the assay on Streptococcus pneumoniae came out at 1 µg/mL (≈ 2.59 µM).

The values are drawn from ChEMBL document CHEMBL1132968, “Substituent effects on the antibacterial activity of nitrogen-carbon-linked (azolylphenyl)oxazolidinones with expanded activity against the fastidious gram-negative organisms Haemophilus influenzae and Moraxella catarrhalis” (2000).
